Source: patent US20240382629A1, “HETEROBIVALENT AND HOMOBIVALENT AGENTS TARGETING FIBROBLAST ACTIVATION PROTEIN ALPHA AND/OR PROSTATE-SPECIFIC MEMBRANE ANTIGEN” (The Johns Hopkins University, priority 2021, published 2024)
Several values for one entry are separate records, joined by “and”; a condition that tells them apart may be missing. Equal values may be shown once.

Experiment: Biodistribution of representative compounds ([^18F]Sri-07-56, [^18F]Sri-07-52, [^18F]JHU1221823, [^18F]FAPI-74), tissue % ID/g with carrier or blocker
Type: in vivo, mouse
Details: 60 min, 20 μCi per mouse
Description: Biodistribution of Representative Compounds

N#CC1CCCN1C(=O)CNC(=O)c1ccnc2ccc(OCCCNC(=O)CCc3cn(CCC(NC(=O)c4ccc([18F])nc4)C(=O)NCCCCC(NC(=O)NC(CC(=O)O)C(=O)O)C(=O)O)nn3)cc12 (stereo not shown) [[18F]Sri-07-52]
Bladder % ID/g Mean: 1.75 % ID/g | Blood % ID/g Mean: 2.39 % ID/g | Brain % ID/g Mean: 0.09 % ID/g | Fat % ID/g Mean: 0.41 % ID/g | Femur % ID/g Mean: 2.10 % ID/g | Heart % ID/g Mean: 1.39 % ID/g | Kidney % ID/g Mean: 1.21 % ID/g | Large intestine % ID/g Mean: 1.16 % ID/g | Liver % ID/g Mean: 1.07 % ID/g | Lung % ID/g Mean: 1.46 % ID/g | Muscle % ID/g Mean: 1.40 % ID/g | Pancreas % ID/g Mean: 3.30 % ID/g | Salivary gland % ID/g Mean: 5.13 % ID/g | Small intestine % ID/g Mean: 1.57 % ID/g | Spleen % ID/g Mean: 0.74 % ID/g | Stomach % ID/g Mean: 0.68 % ID/g | Tumor % ID/g Mean: 2.27 % ID/g | Bladder % ID/g (individual mice): 1.90 % ID/g and 1.61 % ID/g | Blood % ID/g (individual mice): 2.58 % ID/g and 2.21 % ID/g | Brain % ID/g (individual mice): 0.08 % ID/g and 0.11 % ID/g | Fat % ID/g (individual mice): 0.53 % ID/g and 0.29 % ID/g | Femur % ID/g (individual mice): 1.91 % ID/g and 2.29 % ID/g | Heart % ID/g (individual mice): 1.36 % ID/g and 1.42 % ID/g | Kidney % ID/g (individual mice): 1.18 % ID/g and 1.23 % ID/g | Large intestine % ID/g (individual mice): 1.11 % ID/g and 1.21 % ID/g | Liver % ID/g (individual mice): 1.11 % ID/g and 1.04 % ID/g | Lung % ID/g (individual mice): 1.60 % ID/g and 1.32 % ID/g | Muscle % ID/g (individual mice): 1.43 % ID/g and 1.38 % ID/g | Pancreas % ID/g (individual mice): 3.34 % ID/g and 3.27 % ID/g | Salivery gland % ID/g (individual mice): 4.35 % ID/g and 5.90 % ID/g | Small intestine % ID/g (individual mice): 1.56 % ID/g and 1.57 % ID/g | Spleen % ID/g (individual mice): 0.72 % ID/g and 0.77 % ID/g | Stomach % ID/g (individual mice): 0.66 % ID/g and 0.69 % ID/g | Tumor % ID/g (individual mice): 2.44 % ID/g and 2.10 % ID/g
